Assay results reported in patent US20230051589A1, “COMPOUNDS AND COMPOSITIONS FOR TREATING CONDITIONS ASSOCIATED WITH NLRP ACTIVITY” (Novartis AG, priority 2018, published 2023).

System: IL-1β production in PMA-differentiated THP-1 cells
Experiment: IL-1β production in PMA-differentiated THP-1 cells stimulated with gramicidin (hTHP-1 assay, 2% fetal bovine serum; Procedures 1-3)
Type: cell-based, human
Conditions: hTHP-1 assay containing 2% fetal bovine serum, Table B2, class symbols; read-out: IC50
How it was run: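 PMA-primed THP-1 cells (20 ng/ml PMA, 16-18 h) in RPMI with 2% FBS were pre-incubated with compounds for 1 h, from 100 μM downward in 3-fold steps (0.37% DMSO final), then stimulated with 5 μM gramicidin for 2 h. IL-1β in the supernatant was quantified by HTRF.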

Compared with “(S)- and (R)-3-Fluoro-5-((methylamino)methyl)-N′-((2,4,5,6-tetrahydro-1H-cyclobuta[f]inden-3-yl)carbamoyl)thiophene-2-sulfonimidamide [Example 670]”, “(S)- and (R)-3-Fluoro-5-((methylamino)methyl)-N′-((2,4,5,6-tetrahydro-1H-cyclobuta[f]inden-3-yl)carbamoyl)thiophene-2-sulfonimidamide [Example 671]” is higher in IC50: 40 to 200 nM for the first, 1000 to 5000 nM for the second.

For “N-(amino((R)-6-methoxy-6,7- dihydro-5H-pyrazolo[5,1- b][1,3]oxazin-3-yl)(oxo)-9,6- sulfaneylidene)-1,2,3,5,6,7- hexahydro-s-indacene-4-carboxamide [Example 472]”, the IC50 was 40 to 200 nM.

System: IL-1β production in hTHP-1 cells
Experiment: hTHP-1 assay containing 10% fetal bovine serum
Type: cell-based, human
Conditions: Homo sapiens, read-out: hTHP-1 IC50 in 10% FBS, hTHP-1 assay containing 10% fetal bovine serum, Table B4
Procedure: inhibition=100-100×[HCave−Readout/(HCave−LCave)] • 2. Fit the normalized data in a dose-response manner using XLfit, and calculate the compound concentration. Tables B1, B2, and B3 show the biological activity of compounds in hTHP-1 assay containing 2% fetal bovine serum. […] Key: <0.008 μM=“++++++”; ≥0.008 and <0.04 μM=“+++++”; ≥0.04 and <0.2 μM=“++++”; ≥0.2 and <1 μM=“+++”; ≥1 and <5 μM=“++”; ≥5 and <30 μM=“+”.

`CC(C)(O)c1csc(S(N)(=O)=NC(=O)Nc2c3c(cc4c2CCC4)CCC3)c1F` (stereo not drawn) [Example 878, 3-Fluoro-N′-((1,2,3,5,6,7-hexahydro-s-indacen-4-yl)carbamoyl)-4-(2-hydroxypropan-2-yl)thiophene-2-sulfonimidamide] and `CC(C)(O)c1csc(S(N)(=O)=NC(=O)Nc2c3c(cc4c2CC4)CCC3)c1F` (stereo not drawn) [Example 879, 3-Fluoro-4-(2-hydroxypropan-2-yl)-N′-((2,4,5,6-tetrahydro-1H-cyclobuta[f]inden-3-yl)carbamoyl)thiophene-2-sulfonimidamide] fall in the same range of IC50: 40 to 200 nM for the first, 40 to 200 nM for the second.

Same assay, conditions: read-out: hTHP-1 IC50 in 10% FBS; hTHP-1 assay containing 10% fetal bovine serum, Table B4

Compared with `CC(C)(O)c1csc(S(N)(=O)=NC(=O)Nc2c3c(cc4c2CCC4)CCC3)c1F` (single isomer, unassigned) [Example 880, (R) or (S)-3-fluoro-N′-((1,2,3,5,6,7-hexahydro-s-indacen-4-yl)carbamoyl)-4-(2-hydroxypropan-2-yl)thiophene-2-sulfonimidamide], `CC(C)(O)c1csc(S(N)(=O)=NC(=O)Nc2c3c(cc4c2CC4)CCC3)c1F` (single isomer, unassigned) [Example 882, (R) or (S)-3-fluoro-4-(2-hydroxypropan-2-yl)-N′-((2,4,5,6-tetrahydro-1H-cyclobuta[f]inden-3-yl)carbamoyl)thiophene-2-sulfonimidamide] is lower in IC50: 40 to 200 nM for the first, 8 to 40 nM for the second. The second is the more potent here.

First: CC(C)(O)c1csc(S(N)(=O)=NC(=O)Nc2c3c(cc4c2CCC4)CCC3)c1F (single isomer, unassigned) [Example 881, (S) or (R)-3-fluoro-N′-((1,2,3,5,6,7-hexahydro-s-indacen-4-yl)carbamoyl)-4-(2-hydroxypropan-2-yl)thiophene-2-sulfonimidamide]
Second: CC(C)(O)c1csc(S(N)(=O)=NC(=O)Nc2c3c(cc4c2CC4)CCC3)c1F (single isomer, unassigned) [Example 883, (S) or (R)-3-fluoro-4-(2-hydroxypropan-2-yl)-N′-((2,4,5,6-tetrahvdro-1H-cyclobuta[f]inden-3-yl)carbamoyl)thiophene-2-sulfonimidamide]
The IC50 of the first is higher: 5000 to 30000 nM for the first, 1000 to 5000 nM for the second. The second is the more potent here.
